Measured values from ChEMBL document CHEMBL3885861, “Open TG-GATES”.

Species on record: Rattus norvegicus
Assay: Open TG-GATES - Regimen: Single
Type: toxicity, organism-based, Sprague-Dawley
Parameters: regimen Single, gender Male, age 6 weeks
Details: in vivo, po, 0 mg/kg, route gavage, dose level Control; for APTT / Bas / Eos / Fbg / Hb / Ht / Lym / MCH / MCHC / MCV / Mono / Neu / PT / Plat / RBC / Ret / WBC: tissue Blood; for KIDNEY_L / KIDNEY_R / KIDNEY_TOTAL: tissue Kidney; for LIVER: tissue Liver; for A/G / ALP / ALT / AST / BUN / CRE / Ca / Cl / DBIL / GLC / IP / K / LDH / Na / PL / RALB / TBIL / TC / TG / TP / gamma-GTP: tissue Plasma

## CN1C(C(=O)Nc2ccccn2)=C(O)c2sc(Cl)cc2S1(=O)=O [LORNOXICAM]
3 h
  TERMINAL_BW: 223 g
  APTT: 20 s
  Bas: 1%
  Eos: 1.4%
  Fbg: 213.2 mg/dL
  Hb: 13.4 g/dL
  Ht: 39.7%
  Lym: 78.8%
  MCH: 21 pg
  MCHC: 33.8%
  MCV: 62.2 fL
  Mono: 2.8%
  Neu: 16.4%
  PT: 11.9 s
  Plat: 135.7 x10_4/uL
  RBC: 638 x10_4/ul
  Ret: 6.8%
  WBC: 93 x10_2/uL
  KIDNEY_L: 1 g
  KIDNEY_R: 1 g
  KIDNEY_TOTAL: 2 g
  LIVER: 10.1 g
  A/G: 1.7
  ALP: 1010.4 IU/L
  ALT: 36.2 IU/L
  AST: 73 IU/L
  BUN: 11.8 mg/dL
  CRE: 0.4 mg/dL
  Ca: 10.5 mg/dL
  Cl: 103.4 meq/L
  DBIL: 0.076 mg/dL
  GLC: 197.2 mg/dL
  IP: 8.6 mg/dL
  K: 3.7 meq/L
  LDH: 168 IU/L
  Na: 141.4 meq/L
  PL: 133.4 mg/dL
  RALB: 3.5 g/dL
  TBIL: 0.1 mg/dL
  TC: 71.2 mg/dL
  TG: 80 mg/dL
  TP: 5.5 g/dL
  gamma-GTP: 1.4 IU/L
6 h
  TERMINAL_BW: 219.8 g
  APTT: 19.8 s
  Bas: 0.8%
  Eos: 1%
  Fbg: 221.2 mg/dL
  Hb: 13.2 g/dL
  Ht: 39.3%
  Lym: 81.2%
  MCH: 20.9 pg
  MCHC: 33.6%
  MCV: 62.1 fL
  Mono: 2.6%
  Neu: 14.2%
  PT: 12 s
  Plat: 119.7 x10_4/uL
  RBC: 632.4 x10_4/ul
  Ret: 7.2%
  WBC: 109.1 x10_2/uL
  KIDNEY_L: 0.9 g
  KIDNEY_R: 1 g
  KIDNEY_TOTAL: 1.9 g
  LIVER: 9.6 g
  A/G: 1.6
  ALP: 765.4 IU/L
  ALT: 33.4 IU/L
  AST: 68.8 IU/L
  BUN: 11 mg/dL
  CRE: 0.4 mg/dL
  Ca: 10.4 mg/dL
  Cl: 103 meq/L
  DBIL: 0.066 mg/dL
  GLC: 196.8 mg/dL
  IP: 9.1 mg/dL
  K: 3.9 meq/L
  LDH: 209.2 IU/L
  Na: 140.8 meq/L
  PL: 146 mg/dL
  RALB: 3.4 g/dL
  TBIL: 0.1 mg/dL
  TC: 84.8 mg/dL
  TG: 64.8 mg/dL
  TP: 5.6 g/dL
  gamma-GTP: 0.8 IU/L
9 h
  TERMINAL_BW: 218.6 g
  APTT: 20.3 s
  Bas: 0.8%
  Eos: 0.8%
  Fbg: 230.6 mg/dL
  Hb: 13.3 g/dL
  Ht: 39.8%
  Lym: 74.4%
  MCH: 20.9 pg
  MCHC: 33.4%
  MCV: 62.7 fL
  Mono: 3.2%
  Neu: 20.4%
  PT: 12.5 s
  Plat: 119.2 x10_4/uL
  RBC: 634.2 x10_4/ul
  Ret: 7.6%
  WBC: 126.9 x10_2/uL
  KIDNEY_L: 1 g
  KIDNEY_R: 1 g
  KIDNEY_TOTAL: 1.9 g
  LIVER: 9.3 g
  A/G: 1.7
  ALP: 766.8 IU/L
  ALT: 33.2 IU/L
  AST: 65.4 IU/L
  BUN: 9.8 mg/dL
  CRE: 0.3 mg/dL
  Ca: 10.5 mg/dL
  Cl: 103.6 meq/L
  DBIL: 0.076 mg/dL
  GLC: 197.8 mg/dL
  IP: 9.6 mg/dL
  K: 3.8 meq/L
  LDH: 162.2 IU/L
  Na: 142.2 meq/L
  PL: 136.8 mg/dL
  RALB: 3.5 g/dL
  TBIL: 0.1 mg/dL
  TC: 75.2 mg/dL
  TG: 60.6 mg/dL
  TP: 5.6 g/dL
  gamma-GTP: 1.2 IU/L
24 h
  TERMINAL_BW: 238.4 g
  APTT: 19.9 s
  Bas: 0.2%
  Eos: 1%
  Fbg: 225.8 mg/dL
  Hb: 13.5 g/dL
  Ht: 40.7%
  Lym: 80%
  MCH: 20.9 pg
  MCHC: 33.3%
  MCV: 62.6 fL
  Mono: 3.2%
  Neu: 15.2%
  PT: 11.6 s
  Plat: 133.9 x10_4/uL
  RBC: 649.4 x10_4/ul
  Ret: 6.8%
  WBC: 101.7 x10_2/uL
  KIDNEY_L: 1 g
  KIDNEY_R: 1 g
  KIDNEY_TOTAL: 2 g
  LIVER: 11.3 g
  A/G: 1.6
  ALP: 874.6 IU/L
  ALT: 35.2 IU/L
  AST: 65.8 IU/L
  BUN: 14.8 mg/dL
  CRE: 0.4 mg/dL
  Ca: 10.8 mg/dL
  Cl: 103.8 meq/L
  DBIL: 0.1 mg/dL
  GLC: 218 mg/dL
  IP: 7.3 mg/dL
  K: 4 meq/L
  LDH: 177.6 IU/L
  Na: 141.4 meq/L
  PL: 138.4 mg/dL
  RALB: 3.5 g/dL
  TBIL: 0.2 mg/dL
  TC: 69.2 mg/dL
  TG: 101.2 mg/dL
  TP: 5.6 g/dL
  gamma-GTP: 1 IU/L
